According to publication PMC10609741 (Pharmaceutics, 2023):
In brackets after ≈: the same amount, converted by molar mass.

What was measured:
Swiss albino mice [1] = test: Hot-plate test; format: in vivo; settings: oral gavage; for pain inhibition: after 4 h
Procedure: (§1) The tests were performed using Swiss albino mice (25–30 g) which were divided in groups of eight mice each.
A hot-plate test was performed using a hot plate apparatus (DS 37; UgoBasile). The plate was set at 55 ± 0.1 °C and the response latency was noted as the interval between placing the animal on the plate and the occurrence of licking, shaking of the hind paws, or jumping off the surface. The latency of the analgesic response was measured at onset and at 1, 2, 3, and 4 h. The experiment cut-off time was set to 15 s to prevent tissue damage. For each group, the mean value (±S.E.) was reported.

Swiss albino mice [2] = test: Tail-flick test; format: in vivo; settings: oral gavage
Procedure: as §1
The tail-flick test measures the reflex latency after exposure to a heating source, in order to evaluate the spinal response to pain. The tail flick unit (37360; UgoBasile, Gemonio, Italy) directs heat and stimulates the distal part of the mouse tail. The tail-flick latency is defined as the period before the mouse removed its tail from heat stimuli. The pain response at onset and at 1, 2, 3, and 4 h after administration of drugs, was noted. To prevent tissue lesions, the experiment cut-off time was set at 12 s. The pain inhibition (%) was calculated for each tested compound/β-CD complex and for each group the mean value (±S.E.) was reported.

[3] = Solubility of the ibuprofen derivative in water in the absence of β-CD (S0), UV 226 nm; format: physicochemical; settings: water without β-CD, 25 °C, from calibration curves
Procedure: (§2) Stock solutions of β-CD were prepared in the concentration range of 0–15 mmol/L. From each stock solution 1 mL was taken and introduced into thermomixer flasks and 1 mL of suprasaturated solution of 4b, 4g, 4k, 4m was added and stirred at 600 rpm at 25 °C for 24 h, then at 60 °C for 24 h, and finally left to rest, at 25 °C, for another 24 h. UV absorbance was monitored within 190–320 nm on extracts freshly diluted with deionized water, and the maximum wavelength of 226 nm was selected for solubility determinations. All measurements were made in triplicate.

[4] = Phase solubility study with β-CD (apparent solubility constant K1:1); format: physicochemical; settings: 1:1 complex, K1:1 = Slope/S0(1−Slope); β-CD 0–15 mmol/L
Procedure: as §2

Swiss albino mice [5] = test: Acetic acid writhing test; format: in vivo; settings: acetic acid 1% i.p. 4 h after oral administration, writhes counted over 30 min
Procedure: as §1
To determine visceral pain, a writhing test was used. […] The mice were placed in a large glass cylinder and the number of abdominal writhes was recorded over a period of 30 min. The inhibition (%) of writhings was calculated to ascertain the analgesic effect. For each group, the mean value (±S.E.) was reported.

Swiss albino mice [6] = test: Paw formalin test; format: in vivo; settings: formalin 5% 4 h after oral administration
Procedure: as §1
The analgesic and anti-inflammatory effects of the compounds were evaluated using formalin assay. […] The time (s) that the mice spent licking and/or biting the injected paw was recorded. Depending on the time value, the pain can be classified as neurogenic pain (0 to 5 min), interphase pain (5 to 15 min), and inflammatory pain (15 to 30 min). For each group, the mean value (±S.E.) was reported.

[7] = 1/20 of LD50, maximum after 2 h

Compound	time of maximum analgesic effect (Swiss albino mice [1]; 1/20 of LD50) [h]	pain inhibition, maximum effect (Swiss albino mice [2]; 1/20 of LD50, maximum at 3 h) [%]	solubility [3] [µg/mL]	pain inhibition, maximum effect (Swiss albino mice [2]; [7]) [%]	apparent solubility constant (K1:1) in the presence of β-CD [4] [mol⁻¹]	pain inhibition (Swiss albino mice [1]) [%]	inhibition of writhings (Swiss albino mice [5]) [%]	time mice spent licking the formalin-injected paw, first phase (Swiss albino mice [6]; first phase 0–5 min, neurogenic pain) [s]	time mice spent licking the formalin-injected paw, second phase (Swiss albino mice [6]; second phase 15–30 min, inflammatory pain) [s]
CC(C)Cc1ccc(C(C)C(=O)NN2C(=O)CSC2c2ccc(N)cc2)cc1 (centres unmarked) [4m]	3	44.19	38.1 (≈ 95.9 µM)	–	–	–	–	–	–
CC(C)Cc1ccc(C(C)C(=O)NN2C(=O)CSC2c2ccc([N+](=O)[O-])cc2)cc1 (centres unmarked) [4g]	–	–	15 (≈ 35.1 µM)	24.90	723.50	–	–	–	–
CC(C)Cc1ccc(C(C)C(=O)NN2C(=O)CSC2c2ccc(C#N)cc2)cc1 (centres unmarked) [4k]	–	32.01	22.8 (≈ 55.9 µM)	–	713.6510	63.03	58.60	–	–
CC(C)Cc1ccc(C(C)C(=O)NN2C(=O)CSC2c2ccc(Cl)cc2)cc1 (centres unmarked) [4b]	–	–	9.21 (≈ 22.1 µM)	25.54	771.81	58.93	–	–	–
CC(C)Cc1ccc(C(C)C(=O)[O-])cc1.[Na+] (centres unmarked) [Ibu-Na, Ibuprofen sodium, reference compound]	–	45.86	–	–	–	47.22	55.65	59.50	32
